The test system of this experiment is 926638-142-R-J1-PDC complex spheroid viability. Description: Anticancer human tumor 926638-142-R-J1-PDC patient-derived endometrial carcinoma cell line growth inhibition [POLQ]. The following applies: for viability, T/C: stronger effect = lower value. As to the method:
Multicellular complex tumor spheroid response to Polymerase (POL) inhibitors (novobiocin, ART-558, RP6685) in combination with a variety of drugs and investigational agents in selected tumor cell lines
The POL inhibitors (novobiocin, ART-558, and RP6685) were evaluated both individually and in combination with standard of care and investigational anticancer small molecules within a complex spheroid model of solid tumors. . Complex spheroids include a stromal component modeled by human endothelial cells (HUVEC) and fibroblasts modeled by human mesenchymal stem cells (MSCs). The concentration ranges selected for each drug and investigational agent were based upon clinically achievable concentrations if the clinical Cmax of the agent was known.
Compounds. The drugs and investigational agents: novobiocin (NSC847541), ART-558 (NSC835418), RP-6685 (NSC848927), peposertib (NSC802822), ceralasertib (NSC780249), elimusertib (NSC800525), camonsertib (NSC841442), AZD-1390 (NSC803789), olaparib (NSC753686), talazoparib (NSC767125), rucaparib (NSC756644), sotorasib (NSC818433), MRTX-1133 (NSC836407), SN-38 (NSC673596), topotecan (NSC609699), epotoside (NSC141540), doxorubicin (NSC123127), gemcitabine (NSC613327), 5-fluorouracil (NSC19893), paclitaxel (NSC125973), vemurafenib (NSC761431), MSA-2 (NSC828583), SN-011 (NSC837082), adavosertib (NSC754352), prexasertib (NSC758257), carboplatin (NSC241240) and oxaliplatin (NSC266046), were obtained from the National Cancer Institute (NCI) Developmental Therapeutics Program Chemical Repository (21). The FDA-approved anticancer drug set is available from the Developmental Therapeutics Program at https://dtp.cancer.gov/organization/dscb/obtaining/. […] The stock solutions were prepared in dimethyl sulfoxide (DMSO, Sigma-Aldrich, St. Louis, MO, cat. D2650), except for the platinum compounds which were prepared in saline (Quality Biological, Gaithersburg, MD, cat. 114-055-101), at 800-fold the tested concentration and stored at -70 degrees C prior to their use. All drugs and investigational agents were tested over a range starting from a high concentration at or near the clinical Cmax and decreasing in half-log increments. If the clinical Cmax for an agent had not been determined, the highest concentration tested was 10 microM, except for SN-38, which was tested at a high concentration of 1 microM.
Cell Culture. All cells were maintained in an incubator at 37 degrees C and 5% CO2 with 95% humidity. The PDC lines were cultured according to standard operating procedures established by the NCI PDMR (https://pdmr.cancer.gov). Table 3 of the manuscript, lists the cell lines along with the number of the three cell types plated to form the mct-spheroids and media for tumor cell growth. After thawing, all PDC lines, except 997537-175-T-J1-PDC and 415267-285-R-J2-PDC, were cultured in Matrigel-coated flasks prepared with a working solution of 1X Ham's F-12 nutrient mix, without supplementation (Thermo Fisher Scientific, cat. 11765054), 100 U/mL penicillin-streptomycin (Thermo Fisher Scientific, cat. 15140122), and 2.5% Matrigel (Corning Inc., Corning, NY, cat. 354248) for the first three passages. The two PDC lines 997537-175-T-J1-PDC and 415267-285-R-J2-PDC were cultured on uncoated flasks. The 857933-349-R-J2-PDC line was cultured in 6C/Colon 1B media containing advanced DMEM/F-12 (Thermo Fisher Scientific, cat. 12634028), 10 mM HEPES (Thermo Fisher Scientific, cat. 15630080), 1X GlutaMAX supplement (Thermo Fisher Scientific, cat. 35050061), 0.1 mg/mL primocin (InvivoGen, San Diego, CA, cat. ant-pm-2), 10% defined fetal bovine serum, heat inactivated (HyClone Laboratories Inc., Logan, UT, cat. SH30070.03HI), 50% L-WRN conditioned media (ATCC, cat. CRL-3276), 1.25 mM N-Acetyl-L-cysteine (Sigma-Aldrich, cat. A9165), 10 mM nicotinamide (Sigma-Aldrich, cat. N0636), 1X B-27 supplement (Thermo Fisher Scientific, cat. 17504044), 1X N-2 supplement (Thermo Fisher Scientific, cat. […]

The mark [1] stands for this setting: curve of first compound, second compound 0.0316 µM.
The mark [2] stands for this setting: curve of first compound, second compound 0.1 µM.
[3] abbreviates: curve of first compound, second compound 0.316 µM.
[4] abbreviates: curve of first compound, second compound 1 µM.
Where [5] appears, read: curve of first compound, second compound 3.16 µM.
Where [6] appears, read: curve of first compound, second compound 10 µM.
Setting [7] is: second compound 0.0316 µM, first compound 0.00316 µM.
[8] abbreviates: second compound 0.0316 µM, first compound 0.01 µM.
Setting [9] is: second compound 0.0316 µM, first compound 0.0316 µM.
Setting [10] is: second compound 0.0316 µM, first compound 0.1 µM.
[11] abbreviates: second compound 0.0316 µM, first compound 0.316 µM.
Where [12] appears, read: second compound 0.0316 µM, first compound 1 µM.
The mark [13] stands for this setting: second compound 0.1 µM, first compound 0.00316 µM.
Setting [14] is: second compound 0.1 µM, first compound 0.01 µM.
Where [15] appears, read: second compound 0.1 µM, first compound 0.0316 µM.
The mark [16] stands for this setting: second compound 0.1 µM, first compound 0.1 µM.
Setting [17] is: second compound 0.1 µM, first compound 0.316 µM.
Setting [18] is: second compound 0.1 µM, first compound 1 µM.
Where [19] appears, read: second compound 0.316 µM, first compound 0.00316 µM.
Setting [20] is: second compound 0.316 µM, first compound 0.01 µM.
The mark [21] stands for this setting: second compound 0.316 µM, first compound 0.0316 µM.
Setting [22] is: second compound 0.316 µM, first compound 0.1 µM.
Setting [23] is: second compound 0.316 µM, first compound 0.316 µM.
[24] abbreviates: second compound 0.316 µM, first compound 1 µM.
The mark [25] stands for this setting: second compound 1 µM, first compound 0.00316 µM.
Where [26] appears, read: second compound 1 µM, first compound 0.01 µM.
[27] abbreviates: second compound 1 µM, first compound 0.0316 µM.
[28] abbreviates: second compound 1 µM, first compound 0.1 µM.
Setting [29] is: second compound 1 µM, first compound 0.316 µM.
The mark [30] stands for this setting: second compound 1 µM, first compound 1 µM.
The mark [31] stands for this setting: second compound 3.16 µM, first compound 0.00316 µM.
[32] abbreviates: second compound 3.16 µM, first compound 0.01 µM.
Setting [33] is: second compound 3.16 µM, first compound 0.0316 µM.
Setting [34] is: second compound 3.16 µM, first compound 0.1 µM.
[35] abbreviates: second compound 3.16 µM, first compound 0.316 µM.
Setting [36] is: second compound 3.16 µM, first compound 1 µM.
Where [37] appears, read: second compound 10 µM, first compound 0.00316 µM.
Setting [38] is: second compound 10 µM, first compound 0.01 µM.
Setting [39] is: second compound 10 µM, first compound 0.0316 µM.
Where [40] appears, read: second compound 10 µM, first compound 0.1 µM.
Where [41] appears, read: second compound 10 µM, first compound 0.316 µM.
[42] abbreviates: second compound 10 µM, first compound 1 µM.

Several values for one entry are separate records, joined by “and”; a condition that tells them apart may be missing. Identical values can stand only once.

Our source for the IC50 and viability, T/C values is PubChem BioAssay AID1963826 (Molecular Pharmacology Branch, DTP, NCI, 2024).

As usually defined, the IC50 is the concentration that inhibits the measured activity by half. What is called viability, T/C is the ratio of treated to control.
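Further: spheroids exposed to drugs for one week before readout.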
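Wherever viability, T/C is given: percent viability relative to DMSO vehicle control wells set as 100%.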

With `COc1cccc(OCCCN)c1-c1cc(Nc2cnc(C#N)cn2)n[nH]1` + COC1C(OC(N)=O)C(O)C(Oc2ccc3c(O)c(NC(=O)c4ccc(O)c(CC=C(C)C)c4)c(=O)oc3c2C)OC1(C)C, the IC50 runs as follows: under setting [1], 146 nM; under setting [2], 122 nM; under setting [3], 113 nM; under setting [4], 107 nM; under setting [5], 70.5 nM; under setting [6], 77.7 nM. The viability, T/C runs as follows: under setting [7], 104%; under setting [8], 96.4%; under setting [9], 65.9%; under setting [10], 61.8%; under setting [11], 36%; under setting [12], 24.8%. For the same compound, the viability, T/C runs as follows: under setting [13], 111%; under setting [14], 79%; under setting [15], 68.3%; under setting [16], 56.6%; under setting [17], 39%; under setting [18], 31.5%. Further, the viability, T/C is, setting by setting: under setting [19], 94.2%; under setting [20], 74.5%; under setting [21], 62.7%; under setting [22], 51.4%; under setting [23], 42.2%; under setting [24], 35.2%. Besides, the viability, T/C runs as follows: under setting [25], 87.7%; under setting [26], 77.9%; under setting [27], 47.3%; under setting [28], 56.4%; under setting [29], 49.1%; under setting [30], 29.6%. The viability, T/C by setting is: under setting [31], 92.6%; under setting [32], 89.3%; under setting [33], 60.4%; under setting [34], 46.2%; under setting [35], 46.5%; under setting [36], 31.7%. Moreover, the viability, T/C by setting is: under setting [37], 81.2%; under setting [38], 80.8%; under setting [39], 65%; under setting [40], 44.5%; under setting [41], 36.9%; under setting [42], 27.9%.

Turning to `CC(C)n1c(=O)n(C)c2cnc3cc(F)c(-c4ccc(OCCCN5CCCCC5)nc4)cc3c21`, the viability, T/C is, setting by setting: (compound 0.0316 µM) 98.1% and 96.9% and 85.4%; (compound 0.1 µM) 99.6% and 92.2% and 101%; (compound 0.316 µM) 78.3% and 94.7% and 126%; (compound 1 µM) 101% and 93.6% and 113%; (compound 3.16 µM) 89.7% and 80.9% and 94.1%; (compound 10 µM) 51.1% and 73.2% and 92.8%. Besides, the 50% inhibitory concentration (IC50) (curve of compound) is greater than 10000 nM.

With `CC1COCCN1c1cc(C2(S(C)(=N)=O)CC2)nc(-c2ccnc3[nH]ccc23)n1` (stereo not given), the viability, T/C (compound 0.0316 µM) is 103% and 96.2% and 125%; the viability, T/C (compound 0.1 µM) was 100% and 97.9% and 87.2%; the viability, T/C (compound 0.316 µM) is 94.2% and 87.3% and 90%; the viability, T/C (compound 1 µM) is 88.5% and 93.7% and 95%; the viability, T/C (compound 3.16 µM) is 64.7% and 71.3% and 62.5%; the viability, T/C (compound 10 µM) is 32.1% and 35.3% and 33.8%. Also, under “curve of compound”, the IC50 was 5380 nM and 6230 nM and 5460 nM.

With `O=C(Nc1ccc(O)c(NS(=O)(=O)c2ccc(F)cc2)c1)c1ccc(-c2ccccc2)cc1`, the viability, T/C is, setting by setting: (compound 0.0316 µM) 102% and 99.8% and 82.6%; (compound 0.1 µM) 96.1% and 93.2% and 102%; (compound 0.316 µM) 94.9% and 98.2% and 96%; (compound 1 µM) 100% and 98.5% and 103%; (compound 3.16 µM) 78.1% and 104% and 105%; (compound 10 µM) 59.8% and 65.5% and 79.2%. Under “curve of compound”, the IC50 was greater than 10000 nM.

Turning to `COc1cccc(OCCCN)c1-c1cc(Nc2cnc(C#N)cn2)n[nH]1` + Cc1cccc(N(C)C(=O)C2C(O)CCN2c2nc(C)cc(C(F)(F)F)c2C#N)c1, the concentration for half-maximal inhibition (IC50) by setting is: under setting [1], 56.8 nM; under setting [2], 59.4 nM; under setting [3], 47.7 nM; under setting [4], 50.4 nM; under setting [5], 108 nM; under setting [6], 29 nM. Also, the viability, T/C runs as follows: under setting [7], 99.5%; under setting [8], 72.9%; under setting [9], 51.1%; under setting [10], 49.4%; under setting [11], 39.5%; under setting [12], 36%. In addition, the viability, T/C is 102% under setting [13]; 81.8% under setting [14]; 54.2% under setting [15]; 47.2% under setting [16]; 46.1% under setting [17]; 37.8% under setting [18]. In addition, the viability, T/C is, setting by setting: under setting [19], 99.3%; under setting [20], 61.6%; under setting [21], 59.7%; under setting [22], 43.6%; under setting [23], 44.1%; under setting [24], 30.4%. The viability, T/C was 96.6% under setting [25]; 79.2% under setting [26]; 53.5% under setting [27]; 43.3% under setting [28]; 49.2% under setting [29]; 34.3% under setting [30]. Further, the viability, T/C is, setting by setting: under setting [31], 89.4%; under setting [32], 65.9%; under setting [33], 62.1%; under setting [34], 49.2%; under setting [35], 47.5%; under setting [36], 33.7%. Also, the viability, T/C under setting [37] is 83.5%; the viability, T/C under setting [38] is 80.9%; the viability, T/C under setting [39] was 47%; the viability, T/C under setting [40] was 40.2%; the viability, T/C under setting [41] is 38.6%; the viability, T/C under setting [42] is 27.3%.
